Read-outs that look alike come from different tables or passages of the source.

Here are results for 63 molecules from patent US20100144672A1, “PYRIMIDINYL PYRAZOLES AS INSECTICIDES AND PARASITICIDE ACTIVE AGENTS” (BAYER CROPSCIENCE AG, priority 2006, published 2010).

Data set [1] has as its system larvae of the mustard beetle (Phaedon cochleariae). Put plainly: Phaedon test (PHAECO spray treatment). Format: in vivo. As to conditions: 168 h, application rate 500 g/ha, after 7 d, read-out: activity (effect in %, beetle larvae killed). On the procedure:
Phaedon Test ([…] Spray Treatment) [table] To produce a suitable preparation of active compound, 1 part by weight of active compound is mixed with the stated amounts of solvents and emulsifier, and the concentrate is diluted with emulsifier-containing water to the desired concentration. Discs of chinese cabbage (Brassica pekinensis) are sprayed with an active compound preparation of the desired concentration and, after drying, populated with larvae of the mustard beetle (Phaedon cochleariae). After the desired period of time, the effect in % is determined 100% means that all beetle larvae have been killed; 0% means that none of the beetle larvae have been killed.

The nature of data set [2]: logP by HPLC (EEC-Directive 79/831 Annex V.A8). Format: physicochemical. On the procedure: The logP values given in the tables were determined in accordance with EEC-Directive 79/831 Annex V.A8 by HPLC (gradient method, acetonitrile/0.1% strength aqueous phosphoric acid or formic acid).
[3] abbreviates: HPLC gradient method, acetonitrile/0.1% aqueous phosphoric acid or formic acid.
Setting [4] is: HPLC gradient method, acetonitrile/0.1% strength aqueous phosphoric acid or formic acid.
[5] abbreviates: Physical data column of Table 35.

As to `Nc1c(-c2cccc(SC(F)(F)F)c2)c(C(F)(F)F)nn1-c1ncccn1` [Example 6-61], the pest or weed control at 500 g/ha in data set [1] was not below 80%.
Take `CCOc1ccc(-c2c(C(F)(F)F)nn(-c3ncccn3)c2N)cc1` [Example 5-23]: the pest or weed control at 500 g/ha in data set [1] was not below 80%.
Regarding `Cc1nn(-c2ncccn2)c(NCc2ccccc2)c1-c1ccccc1Cl` [Example 26-44], in data set [2] (Physical data of Table 26), the logP entry was “logP = 3.37”.
As to `CC(C)=CCNc1c(-c2ccc(Cl)cc2)c(C)nn1-c1ncccn1` [Example 26-84], the logP result in data set [2] (Physical data of Table 26) was “logP = 3.84”.
As for `CCNc1c(-c2ccc(F)cc2)c(C)nn1-c1ncccn1` [Example 25-04], in data set [2] (Table 25, Physical data), the logP entry is listed as “logP = 2.59”.
`Nc1c(-c2ccc(Oc3ccccc3)cc2)c(C(F)(F)F)nn1-c1ncccn1` [5-40]: in data set [2] (setting [3]), the logP entry was “logP 3.22”.
Consider `Cc1ccnc(-n2nc(C(F)(F)F)c(-c3cc(F)cc(Cl)c3)c2N)n1` [Example 19-198], for which the lgP entry in data set [2] (Table 19, Physical data) is recorded as “lgP = 3.42”.
Take `CN(C)c1ccc(-c2c(C(F)(F)F)nn(-c3ncccn3)c2N)cc1` [Example 5-89]: the pest or weed control at 500 g/ha in data set [1] is not below 80%.
Turning to `Cc1ccnc(-n2nc(C(F)(F)F)c(-c3ccc(Cl)c(Cl)c3)c2N)n1` [Example 19-18], the lgP entry in data set [2] (Table 19, Physical data) was “lgP = 3.73”.
On the same count and under the same terms, as for `Nc1c(-c2ccc(Br)cc2)c(C(F)(F)F)nn1-c1ncc(F)cn1` [Example 19-48], the entry is “lgP = 3.19”.
For `CS(=O)(=O)c1ccc(-c2c(C(F)(F)F)nn(-c3ncccn3)c2N)cc1` [Example 5-60], the pest or weed control at 500 g/ha in data set [1] is not below 80%.
As for `FC(F)(F)c1cc(Cl)cc(-c2c(C(F)(F)F)nn(-c3ncccn3)c2Br)c1` [Example 14-58], in data set [2] (by HPLC), the “logP (lgP), Physical data” value is listed as “lgP = 4.64”.
On to `CCCNc1c(-c2cccc(Cl)c2)c(C)nn1-c1ncccn1` [Example 26-6], for which the logP result in data set [2] (Physical data of Table 26) is listed as “logP = 3.37”.
As to `Cc1ccnc(-n2nc(C(F)(F)F)c(-c3ccc(Br)cc3)c2N)n1` [Example 19-10], the lgP entry in data set [2] (Table 19, Physical data) was “lgP = 3.37”.
Consider `Cc1ccnc(-n2nc(C(F)(F)F)c(-c3ccc(Br)cc3F)c2N)n1` [Example 19-200], for which the lgP entry in data set [2] (Table 19, Physical data) is “lgP = 3.28”.
On the same count and under the same terms, the entry for `Nc1c(-c2cc(Cl)cc(Cl)c2)c(C(F)(F)F)nn1-c1ncc(Cl)cn1` [Example 19-76] is “lgP = 4.10”.
With `Nc1c(-c2cc(F)cc(Cl)c2)c(C(F)(F)F)nn1-c1ncc(F)cn1` [Example 43-07], the lgP result in data set [2] (setting [4]) is reported as “lgP = 3.24”.
`N#Cc1ccnc(-n2nc(C(F)(F)F)c(-c3cc(Cl)cc(Cl)c3)c2N)n1` [Example 19-209]: the lgP result in data set [2] (Table 19, Physical data) is “lgP = 3.84”.
Consider `Cc1nn(-c2ncccn2)c(NCC2CC2)c1-c1ccc(F)cc1` [Example 26-62], for which, in data set [2] (Physical data of Table 26), the logP entry is reported as “logP = 3.15”.
For the molecule `FC(F)(F)c1nn(-c2ncccn2)c(Cl)c1-c1cccc(Cl)c1` [Example 14-06], the “logP (lgP), Physical data” value in data set [2] (by HPLC) is “lgP = 3.88”.
On the same count and under the same terms, as for `FC(F)(F)c1nn(-c2ncccn2)c(Br)c1-c1cc(Cl)cc(Cl)c1` [Example 14-38], the entry is “lgP = 4.62”.
`CCNc1c(-c2ccccc2Cl)c(C)nn1-c1ncccn1` [Example 25-05]: the logP entry in data set [2] (Table 25, Physical data) was “logP = 2.69”.
The same measure, in the same setting: as for `CCNc1c(-c2cccc(Cl)c2)c(C)nn1-c1ncccn1` [Example 25-06], the entry is “logP = 3.02”.
As for `CCc1nn(-c2ncccn2)c(N)c1-c1ccc(Cl)nc1` [Example 32-37], the lgP result in data set [2] (Physical data column of Table 32) is given as “lgP = 1.76”.
In the case of `C[S+]([O-])c1ccc(-c2c(C(F)(F)F)nn(-c3ncccn3)c2N)cc1` (stereo not drawn) [Example 5-59], in data set [1], the pest or weed control at 500 g/ha was not below 80%.
For the molecule `Cc1ccnc(-n2nc(C(F)(F)F)c(-c3cc(F)cc(F)c3)c2N)n1` [Example 19-199], in data set [2] (Table 19, Physical data), the lgP result was “lgP = 3.06”.
Take `Nc1c(-c2ccc(Cl)cc2)c(C(F)(F)F)nn1-c1ncc(Cl)cn1` [Example 19-64]: in data set [2] (Table 19, Physical data), the lgP entry was “lgP = 3.53”.
Regarding `Cc1cnc(-n2nc(C(F)(F)F)c(-c3ccc(F)c(F)c3)c2N)nc1` [Example 19-206], in data set [2] (Table 19, Physical data), the lgP entry is recorded as “lgP = 3.02”.
Turning to `CCCNc1c(-c2ccc(Cl)cc2)c(C)nn1-c1ncccn1` [Example 26-7], the logP result in data set [2] (Physical data of Table 26) was “logP = 3.42”.
For the molecule `Nc1c(-c2ccc(Cl)cc2)c(C2CC2)nn1-c1ncccn1` [Example 35-07], in data set [2] (setting [5]), the logP entry was “logP 2.66; ^1H-NMR”.
Regarding `Cc1ccnc(-n2nc(C(F)(F)F)c(-c3ccc(F)c(F)c3)c2N)n1` [Example 19-201], the lgP entry in data set [2] (Table 19, Physical data) is reported as “lgP = 3.02”.
For the molecule `FC(F)(F)c1cc(Cl)cc(-c2c(C(F)(F)F)nn(-c3ncccn3)c2I)c1` [Example 14-59], the “logP (lgP), Physical data” value in data set [2] (by HPLC) is “lgP = 4.39”.
For the molecule `Cc1cc(C)cc(-c2c(C(F)(F)F)nn(-c3nccc(C)n3)c2N)c1` [Example 19-202], the lgP entry in data set [2] (Table 19, Physical data) is “lgP = 3.42”.
Regarding `COc1ccnc(-n2nc(C(F)(F)F)c(-c3cc(Cl)cc(Cl)c3)c2N)n1` [Example 19-171], the lgP entry in data set [2] (Table 19, Physical data) is “lgP = 2.93”.
The same measure, in the same setting: the entry for `Cc1cnc(-n2nc(C(F)(F)F)c(-c3cc(F)cc(F)c3)c2N)nc1` [Example 19-204] is “lgP = 3.06”.
Regarding `FC(F)(F)c1nn(-c2ncccn2)c(I)c1-c1cccc(Cl)c1` [Example 14-44], in data set [2] (by HPLC), the “logP (lgP), Physical data” value is recorded as “lgP = 3.78”.
With `Cc1cnc(-n2nc(C(F)(F)F)c(-c3cc(Br)cc(Br)c3)c2N)nc1` [Example 19-207], the lgP result in data set [2] (Table 19, Physical data) was “lgP = 4.05”.
As for `FC(F)(F)c1nn(-c2ncccn2)c(I)c1-c1ccc(Cl)c(Cl)c1` [Example 14-56], in data set [2] (by HPLC), the “logP (lgP), Physical data” value was “lgP = 4.39”.
Take `Nc1c(-c2ccc(Br)cc2)c(C2CCCC2)nn1-c1ncccn1` [Example 35-87]: the logP entry in data set [2] (setting [5]) is “logP 3.34”.
For `Nc1c(-c2cc(Cl)cc(Cl)c2)c(C(F)(F)F)nn1-c1ncc(F)cn1` [Example 19-57], the lgP result in data set [2] (Table 19, Physical data) is on record as “lgP = 3.63”.
`Nc1c(-c2cccc(Cl)c2)c(C(F)(F)F)nn1-c1ncccn1` [Example 1-5]: the logP entry in data set [2] (setting [3]) is “logP = 2.96”.
For `FC(F)(F)c1nn(-c2ncccn2)c(Br)c1-c1cccc(Cl)c1` [Example 14-25], the “logP (lgP), Physical data” value in data set [2] (by HPLC) is “lgP = 3.89”.
For `FC(F)(F)c1nn(-c2ncccn2)c(Br)c1-c1ccc(Br)cc1` [Example 14-29], in data set [2] (by HPLC, read-out: logP (lgP), Physical data), the chromatographic logP was 3.75.
`Nc1c(-c2cc(Cl)cc(Cl)c2)c(C(F)(F)F)nn1-c1ncc(Br)cn1` [Example 19-95]: the lgP entry in data set [2] (Table 19, Physical data) was “lgP = 4.15”.
As to `Nc1c(-c2cc(Br)cc(Br)c2)c(C(F)(F)F)nn1-c1ncc(F)cn1` [Example 43-11], the lgP entry in data set [2] (setting [4]) was “lgP = 3.84”.
In the case of `Cc1nn(-c2ncccn2)c(NC(C)C)c1-c1ccc(F)cc1Cl` [Example 26-37], in data set [2] (Physical data of Table 26), the logP result is on record as “logP = 2.91”.
With `CC(C)Oc1ccc(-c2c(C(F)(F)F)nn(-c3ncccn3)c2N)cc1` [Example 5-25], the pest or weed control at 500 g/ha in data set [1] was not below 80%.
On to `Nc1c(-c2ccc(F)c(F)c2)c(C(F)(F)F)nn1-c1ncc(F)cn1` [Example 43-10], for which the lgP result in data set [2] (setting [4]) is “lgP = 2.84”.
Consider `Cc1nn(-c2ncccn2)c(N)c1-c1ccc(F)cc1Cl` [Example 16-18], for which, in data set [2] (Physical data column of Table 16), the logP result was “logP = 1.71”.
Turning to `Nc1c(-c2ccc(Br)cc2F)c(C(F)(F)F)nn1-c1ncc(F)cn1` [Example 43-09], in data set [2] (setting [4]), the lgP entry was “lgP = 3.15”.
Consider `Cc1cnc(-n2nc(C(F)(F)F)c(-c3ccc(Br)cc3F)c2N)nc1` [Example 19-205], for which the lgP entry in data set [2] (Table 19, Physical data) was “lgP = 3.28”.
With `Nc1c(-c2ccccc2Cl)c(C(F)(F)F)nn1-c1ncccn1` [1-04], the logP result in data set [2] is “logP = 2.59”.
As for `CNc1c(-c2ccc(Br)cc2)c(C(F)(F)F)nn1-c1ncccn1` [Example 11-10, 4-(4-bromophenyl)-N-methyl-1-pyrimidin-2-yl-3-(trifluoromethyl)-1H-pyrazole-5-amine], the pest or weed control at 500 g/ha in data set [1] was not below 80%.
Regarding `CSc1ccc(-c2c(C(F)(F)F)nn(-c3ncccn3)c2N)cc1` [Example 5-58], the pest or weed control at 500 g/ha in data set [1] was not below 80%.
`Cc1cnc(-n2nc(C(F)(F)F)c(-c3cc(C)cc(C)c3)c2N)nc1` [Example 19-208]: the lgP result in data set [2] (Table 19, Physical data) is “lgP = 3.47”.
`FC(F)(F)c1nn(-c2ncccn2)c(I)c1-c1cc(Cl)cc(Cl)c1` [Example 14-57]: the “logP (lgP), Physical data” value in data set [2] (by HPLC) is recorded as “lgP = 4.51”.
Turning to `Cc1cnc(-n2nc(C(F)(F)F)c(-c3cc(F)cc(Cl)c3)c2N)nc1` [Example 19-203], in data set [2] (Table 19, Physical data), the lgP result is reported as “lgP = 3.42”.
Turning to `CCNc1c(-c2ccc(F)cc2Cl)c(C)nn1-c1ncccn1` [Example 25-31], the logP entry in data set [2] is given as “logP = 2.79”.
Turning to `CC(C)Oc1ccc(-c2c(C(F)(F)F)nn(-c3ncccn3)c2N)cc1Cl` [Example 8-92, 4-(3-chloro-4-isopropoxyphenyl)-2-pyrimidin-2-yl-5-trifluoromethyl-2H-pyrazol-3-ylamine], the pest or weed control at 500 g/ha in data set [1] is not below 80%.
As to `Nc1c(-c2cc(F)cc(F)c2)c(C(F)(F)F)nn1-c1ncc(F)cn1` [Example 43-08], the lgP entry in data set [2] (setting [4]) is given as “lgP = 2.93”.
On to `Cc1ccnc(-n2nc(C(F)(F)F)c(-c3cccc(Br)c3)c2N)n1` [Example 19-09], for which the lgP result in data set [2] (Table 19, Physical data) is reported as “lgP = 3.84”.
Take `Cc1nn(-c2ncccn2)c(NCc2ccccc2)c1-c1ccc(Cl)cc1Cl` [Example 26-54]: the logP entry in data set [2] (Physical data of Table 26) is on record as “logP = 4.23”.
Regarding `Nc1c(-c2cc(Cl)cc(Cl)c2)c(C(F)(F)F)nn1-c1nccc(C(F)(F)F)n1` [Example 19-152], in data set [2] (Table 19, Physical data), the lgP entry is “lgP = 4.25”.
